From patent publication US7368578B2, “Five-membered heterocyclic compounds” (Takeda Pharmaceutical Company Limited, priority 2002, dated 2008)

How the values were obtained:
human PPARγ1 = target: T1, human PPARγ1 (Homo sapiens, UniProt P37231); test: Measurement of human PPARγ1 binding activity ([3H]-compound A displacement); details: cell extract with 1.5 μg/ml full length hPPARγ1, 20 nM [3H]-compound A, 4° C., 16 hrs
T1 construct: made in house; host or cells: COS-1 cells transiently transfected with pMCMVneo-hPPARγ; crude supernatant of the lysate, not purified
T1 sequence (P37231 1-477 isoform P37231-2): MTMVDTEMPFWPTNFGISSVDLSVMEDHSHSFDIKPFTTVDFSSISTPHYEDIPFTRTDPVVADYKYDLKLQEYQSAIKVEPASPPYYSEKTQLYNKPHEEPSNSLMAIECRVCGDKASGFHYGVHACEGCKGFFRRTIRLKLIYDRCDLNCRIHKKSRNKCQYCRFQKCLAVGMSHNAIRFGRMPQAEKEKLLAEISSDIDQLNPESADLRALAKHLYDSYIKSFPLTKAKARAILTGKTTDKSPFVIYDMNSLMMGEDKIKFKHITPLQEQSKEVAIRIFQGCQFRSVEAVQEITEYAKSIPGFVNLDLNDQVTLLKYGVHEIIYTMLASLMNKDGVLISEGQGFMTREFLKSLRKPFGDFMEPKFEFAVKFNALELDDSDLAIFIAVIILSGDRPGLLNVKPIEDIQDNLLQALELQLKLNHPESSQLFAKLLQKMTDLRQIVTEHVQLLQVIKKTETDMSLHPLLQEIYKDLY
Experimental: A cell extract containing 1.5 μg/ml of full length hPPARγ1 prepared in Reference Example 7a, 20 nM [^3H]-compound A (16 Ci/mmol)(Amersham Pharmacia Biotech) and a test compound were reacted in TEGM buffer at 4° C. for 16 hrs. To the reaction mixture was added activated carbon (Sigma) coated with 140 μl of dextran (Amersham Pharmacia Biotech) and gelatin (Sigma), and the mixture was left standing at 4° C. for 10 min and centrifuged at 910×g for 10 min. After centrifugation, the radioactivity of 30 μl of supernatant was measured with Topcount (Packard). In addition, a test similar to the above was conducted for the non-use of the aforementioned test compound and for the use of 100 μM of compound A instead of the aforementioned test compound, and the radioactivity was determined.
The human PPARγ1 binding activity of the test compound was evaluated using percentages wherein the measured value of the radioactivity when 20 nM [^3H]-compound A alone was added was 100%, and the measured value of the radioactivity when 20 nM [^3H]-compound A and 100 μM of compound A were simultaneously added was 0%. Moreover, the IC50 value of the test compound was calculated based on the analysis of the compound concentration and the percentage using PRISM3.0 (Graph Pad, Inc.).
COS-1 cells were seeded in a 150 cm^2 tissue culture flask (Corning Inc.) at 5×10^6 cells, and cultured under 37° C. 5% CO2 conditions for 24 hrs. Transfection was performed using lipofectamine (GIBCO BRL). To be specific, 125 μl of lipofectamine, 100 μl of PLUS Reagent and 15 μg of hPPARγ expression plasmid (plasmid pMCMVneo-hPPARγ obtained in Reference Example 6a) were mixed with opti-MEM (GIBCO BRL) to give a transfection mixture. The transfection mixture (25 ml) was added to COS-1 cells and the cells were cultured under 37° C. 5% CO2 conditions for 3 hrs. Then 25 ml of DMEM medium (Nikken Biomedical Laboratory) containing 10% FCS treated with activated carbon (Sigma) was added to the cells and the cells were cultured under 37° C. 5% CO2 conditions. After 24 hrs., the medium was substituted with 50 ml of DMEM medium (Nikken Biomedical Laboratory) containing 5% FCS treated with activated carbon, and the cells were cultured under 37° C., 5% CO2 conditions. After 48 hrs, the transfected cells were recovered and washed with TEG buffer (10 mM Tris-HCl (pH 7.2), 50 mM EDTA, 10% glycerol). The cells were suspended in 1 ml TEGM buffer (10 mM Tris-HCl (pH 7.2), 1 mM EDTA, 10% glycerol, 7 μl/100 ml β-mercaptoethanol, 10 mM Na molybdate, 1 mM dithiothreitol, 2 tablets/100 ml Protease inhibitor Cocktail tablets (Boehringer Mannheim)) and, for cell lysis, frozen with liquid nitrogen and thawed on ice. To remove the debris of the cells, the extract was centrifuged at 228,000×g, 4° C. for 20 min. and the supernatant was preserved at −80° C. until use.

Structure (SMILES) | IC50 (human PPARγ1) | melting point
CCc1nc(/C=C/c2cn(-c3ccccc3)nc2OCc2ccc(OCc3nc(-c4ccc(CC(=O)O)cc4)oc3C)c(OC)c2)cs1 [Example 337, {4-[4-({4-[({4-[(E)-2-(2-ethyl-1,3-thiazol-4-yl)ethenyl]-1-phenyl-1H-pyrazol-3-yl}oxy)methyl]-2-methoxyphenoxy}methyl)-5-methyl-1,3-oxazol-2-yl]phenyl}acetic acid] | 66 nM | 
Cc1oc(-c2ccco2)nc1COc1ccc(COc2nn(Cc3ccccc3)cc2C=O)cn1 [Example 42, 1-benzyl-3-[(6-{[2-(2-furyl)-5-methyl-1,3-oxazol-4-yl]methoxy}-3-pyridinyl)methoxy]-1H-pyrazole-4-carbaldehyde] | 1100 nM | 104 to 105 °C
COc1cc(COc2nn(-c3ccccc3)cc2C=O)ccc1OCc1nc(-c2ccco2)oc1C [Example 76, 3-[(4-{[2-(2-furyl)-5-methyl-1,3-oxazol-4-yl]methoxy}-3-methoxybenzyl)oxy]-1-phenyl-1H-pyrazole-4-carbaldehyde] | 190 nM | 137 to 138 °C
CCOP(=O)(/C=C/c1cn(-c2ccccc2)nc1OCc1ccc(OCc2nc(-c3ccc(OC)c(C(=O)O)c3)oc2C)c(OC)c1)OCC [Example 252, 5-{4-({4-[({4-[(E)-2-(diethoxyphosphoryl)ethenyl]-1-phenyl-1H-pyrazol-3-yl}oxy)methyl]-2-methoxyphenoxy}methyl)-5-methyl-1,3-oxazol-2-yl}-2-methoxybenzoic acid] | 23 nM | 171 to 172 °C
CCOP(=O)(/C=C/c1cn(-c2ccccc2)nc1OCc1ccc(OCc2nc(-c3cccc(C(=O)O)c3)oc2C)c(OC)c1)OCC [Example 203, 3-[4-({4-[({4-[(E)-2-(diethoxyphosphoryl)ethenyl]-1-phenyl-1H-pyrazol-3-yl}oxy)methyl]-2-methoxyphenoxy}methyl)-5-methyl-1,3-oxazol-2-yl]benzoic acid] | 4.8 nM | 148 to 149 °C
COc1cc(COc2nn(-c3ccccc3)cc2/C=C/C#N)ccc1OCc1nc(-c2ccccc2)oc1C [Example 282, (E)-3-(3-{[3-methoxy-4-(5-methyl-2-phenyl-1,3-oxazol-4-ylmethoxy)benzyl]oxy}-1-phenyl-1H-pyrazol-4-yl)-2-propenonitrile] | 120 nM | 184 to 185 °C
CCc1nc(/C=C/c2cn(-c3ccccc3)nc2OCc2ccc(OCc3nc(-c4ccc(CC(=O)O)cc4)oc3C)c(OC)c2)co1 [Example 369, {4-[4-({4-[({4-[(E)-2-(2-ethyl-1,3-oxazol-4-yl)ethenyl]-1-phenyl-1H-pyrazol-3-yl}oxy)methyl]-2-methoxyphenoxy}methyl)-5-methyl-1,3-oxazol-2-yl]phenyl}acetic acid] | 83 nM | 
COc1cc(COc2nn(-c3ccccc3)cc2/C=C/c2csc(C)n2)ccc1OCc1nc(-c2ccc(CC(=O)O)cc2)oc1C [Example 357, {4-[4-({2-methoxy-4-[({4-[(E)-2-(2-methyl-1,3-thiazol-4-yl)ethenyl]-1-phenyl-1H-pyrazol-3-yl}oxy)methyl]phenoxy}methyl)-5-methyl-1,3-oxazol-2-yl]phenyl}acetic acid] | 150 nM | 
CCC(=O)/C=C/c1cn(-c2ccccc2)nc1OCc1ccc(OCc2nc(-c3ccco3)oc2C)c(OC)c1 [Example 156, (1E)-1-{3-[(4-{[2-(2-furyl)-5-methyl-1,3-oxazol-4-yl]methoxy}-3-methoxybenzyl)oxy]-1-phenyl-1H-pyrazol-4-yl}-1-penten-3-one] | 7300 nM | 167 to 168 °C
COc1cc(COc2nn(-c3ccccc3)cc2C#N)ccc1OCc1nc(-c2ccco2)oc1C [Example 77, 3-[(4-{[2-(2-furyl)-5-methyl-1,3-oxazol-4-yl]methoxy)-3-methoxybenzyl)oxy]-1-phenyl-1H-pyrazole-4-carbonitrile] | 79 nM | 167 to 168 °C
CCOP(=O)(/C=C/c1cn(-c2ccccc2)nc1OCc1ccc(OCc2nc(-c3ccco3)oc2C)c(OC)c1)OCC [Example 116 (E form), diethyl (E)-2-{3-[(4-{[2-(2-furyl)-5-methyl-1,3-oxazol-4-yl]methoxy}-3-methoxybenzyl)oxy]-1-phenyl-1H-pyrazol-4-yl}ethenylphosphonate] | 39 nM | 
CCOC(=O)c1cn(-c2ccccc2)nc1OCc1ccc(OCc2nc(-c3ccco3)oc2C)c(OC)c1 [Example 72, ethyl 3-[(4-{[2-(2-furyl)-5-methyl-1,3-oxazol-4-yl]methoxy}-3-methoxybenzyl)oxy]-1-phenyl-1H-pyrazole-4-carboxylate] | 770 nM | 150 to 151 °C
CCOP(=O)(/C=C/c1cn(-c2ccccc2)nc1OCc1ccc(OCc2nc(-c3cccc(CC(=O)O)c3)oc2C)c(OC)c1)OCC [Example 249, {3-[4-({4-[({4-[(E)-2-(diethoxyphosphoryl)ethenyl]-1-phenyl-1H-pyrazol-3-yl}oxy)methyl]-2-methoxyphenoxy}methyl)-5-methyl-1,3-oxazol-2-yl]phenyl}acetic acid] | 33 nM | 
COc1cc(COc2nn(-c3ccccc3)cc2/C=C/c2csc(C(C)C)n2)ccc1OCc1nc(-c2ccc(CC(=O)O)cc2)oc1C [Example 361, {4-[4-({4-[({4-[(E)-2-(2-isopropyl-1,3-thiazol-4-yl)ethenyl]-1-phenyl-1H-pyrazol-3-yl}oxy)methyl]-2-methoxyphenoxy}methyl)-5-methyl-1,3-oxazol-2-yl]phenyl}acetic acid] | 38 nM | 
CCOP(=O)(CCc1cn(-c2ccccc2)nc1OCc1ccc(OCc2nc(-c3ccco3)oc2C)c(OC)c1)OCC [Example 100, diethyl 2-{3-[(4-{[2-(2-furyl)-5-methyl-1,3-oxazol-4-yl]methoxy}-3-methoxybenzyl)oxy]-1-phenyl-1H-pyrazol-4-yl}ethylphosphonate] | 210 nM | 
CCOP(=O)(/C=C/c1cn(-c2ccccc2)nc1OCc1ccc(OCc2nc(-c3cccc(-c4nnn[nH]4)c3)oc2C)c(OC)c1)OCC [Example 336, {(E)-2-(3-{[3-methoxy-4-({5-methyl-2-[3-(1H-tetrazol-5-yl)phenyl]-1,3-oxazol-4-yl}methoxy)benzyl]oxy}-1-phenyl-1H-pyrazol-4-yl)ethenyl}phosphonate diethyl] | 7.7 nM | 
COc1cc(COc2nn(-c3ccccc3)cc2/C=C/c2coc(C(C)C)n2)ccc1OCc1nc(-c2ccc(CC(=O)O)cc2)oc1C [Example 370, {4-[4-({4-[({4-[(E)-2-(2-isopropyl-1,3-oxazol-4-yl)ethenyl]-1-phenyl-1H-pyrazol-3-yl}oxy)methyl]-2-methoxyphenoxy}methyl)-5-methyl-1,3-oxazol-2-yl]phenyl}acetic acid] | 32 nM | 
CCOP(=O)(/C=C/c1cn(-c2ccccc2)nc1OCc1ccc(OCc2nc(-c3ccc(CC(=O)O)cc3)oc2C)c(OC)c1)OCC [Example 241, {4-[4-({4-[({4-[(E)-2-(diethoxyphosphoryl)ethenyl]-1-phenyl-1H-pyrazol-3-yl}oxy)methyl]-2-methoxyphenoxy}methyl)-5-methyl-1,3-oxazol-2-yl]phenyl}acetic acid] | 69 nM | 
COc1cc(COc2nn(-c3ccccc3)cc2CO)ccc1OCc1nc(-c2ccco2)oc1C [Example 75, {3-[(4-{[2-(2-furyl)-5-methyl-1,3-oxazol-4-yl]methoxy}-3-methoxybenzyl)oxy]-1-phenyl-1H-pyrazol-4-yl}methanol] | 660 nM | 
